This is an account of results in patent US20130115286A1, “ORAL ADMINISTRATION FORMS FOR CONTROLLED RELEASE OF RIFAMPICIN FOR THE TREATMENT OF BACTERIAL INFECTIONS AND INFLAMMATORY DISEASES OF THE GASTROINTESTINAL TRACT” (priority 2010, published 2013).

The term pKa denotes the pH at which an ionisable group is half protonated.

Data set [1] can be described thus: Stability tests on rifampicin in acid, neutral and basic environments (FIG. 1). The format is physicochemical.
The conditions of data set [2]: cited from earlier work.
The conditions of data set [3]: determined by the intestinal pH values; cited from earlier work.
For data set [4] the following is noted: oral, 600 mg, healthy volunteers; cited from earlier work.
The conditions of data set [5]: in vivo, cited from earlier work.

SMILES strings stand for the structures.

As to `CO[C@H]1/C=C/O[C@@]2(C)Oc3c(C)c(O)c4c(O)c(c(/C=N/N5CCN(C)CC5)c(O)c4c3C2=O)NC(=O)/C(C)=C\C=C\[C@H](C)[C@H](O)[C@@H](C)[C@@H](O)[C@@H](C)[C@H](OC(C)=O)[C@@H]1C` [rifampicin], the stability result in data set [1] (acid environment) is recorded as “less stable”; in data set [1] (neutral and weakly alkaline environments), “sufficiently stable”. The pKa in data set [2] is reported as 1.7. In addition, in data set [3], the “solubility in the intestine” value is 1 to 6 mg/mL. Moreover, in data set [4], the “maximum blood concentration (Cmax)” value was 9 µg/mL. In addition, in data set [5] (po), the “dose eliminated in the urine” value is recorded as “approx. 20 % of the dose”. Further, in data set [5], the “amount present in the plasma relative to that eliminated by the renal route” value is 5 times.
